This test addresses T1, P2X7 (UniProt Q99572).
T1 sequence (Q99572 1-595): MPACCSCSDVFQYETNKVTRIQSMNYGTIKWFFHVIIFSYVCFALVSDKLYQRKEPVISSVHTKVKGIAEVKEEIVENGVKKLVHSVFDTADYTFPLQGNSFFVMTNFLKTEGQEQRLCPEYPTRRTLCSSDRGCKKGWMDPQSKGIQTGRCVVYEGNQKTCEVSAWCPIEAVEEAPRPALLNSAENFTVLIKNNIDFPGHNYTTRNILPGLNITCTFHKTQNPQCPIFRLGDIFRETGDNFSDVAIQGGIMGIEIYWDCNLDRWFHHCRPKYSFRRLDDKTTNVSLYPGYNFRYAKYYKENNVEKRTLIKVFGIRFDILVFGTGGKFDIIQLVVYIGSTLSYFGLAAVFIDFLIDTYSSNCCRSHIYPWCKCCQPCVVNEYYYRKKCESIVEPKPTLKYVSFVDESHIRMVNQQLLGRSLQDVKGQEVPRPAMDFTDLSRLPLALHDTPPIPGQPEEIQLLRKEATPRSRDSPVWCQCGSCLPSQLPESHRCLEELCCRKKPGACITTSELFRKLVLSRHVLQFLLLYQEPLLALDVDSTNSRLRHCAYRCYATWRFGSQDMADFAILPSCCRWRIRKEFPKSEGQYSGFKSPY
Description: pIC50 values for P2X7 (Table 1). In kind it is cell-based. Here is the method:
Intracellular Calcium Flux (FLIPR) Assay
Stock solutions of compounds were prepared from powders as a 10 mM DMSO stock solution. These solutions were stored at RT during the two week period of these experiments to prevent freeze-thaw of the DMSO stocks. The DMSO stocks were added to the appropriate assay buffer at a concentration of 10 μM, and then diluted serially to the final concentrations that were tested. […] The aqueous solutions of compounds as well as ATP (Sigma A7699) and BzATP (Sigma B6396) were prepared fresh for each day of experiment.
1321N1 cells stably expressing the full length human P2X7 gene (1321N1-hP2X7) and HEK293 cells stably expressing the full length rat P2X7 gene (HEK293-rP2X7) were obtained from the Roche Cell Culture Facility. 1321N1-hP2X7 cells were grown in Dulbecco's Modified Eagle's Medium (DMEM) high glucose supplemented with 10% FBS and 250 μg/mL G418. HEK293-rP2X7 cells were grown in DMEM/F-12 supplemented with 10% FBS, 1 mM CaCl2, 2 mM MgCl2, 2 mM L-Glutamine and 500 μg/ml G418. Cells were split such that they never became >70% confluent.
On the day prior to the experiment, 1321N1-hP2X7 or HEK293-rP2X7 cells were released into suspension with calcium-free PBS+Versene and washed by centrifugation with calcium-free PBS to remove the Versene. Cells were resuspended in growth medium at a density of 2.5×10^5 cells/mL and seeded into black walled, clear bottom 96 well plates (50,000 cells/well) approximately 18 hr prior to intracellular calcium flux experiments.
On the day of the experiment, plates were washed with FLIPR buffer (calcium- and magnesium-free Hank's Balanced Salt Solution (HBSS) supplemented with 10 mM Hepes, 2.5 mM probenecid and 2 mM calcium chloride) using a BIO-TEK 96 channel plate washer and incubated with […] fluo-3 dye at 37° C. for one hr. The dye was then removed by plate washing and the cells were allowed to equilibrate for 20 min at room temperature with antagonist or vehicle (FLIPR buffer). Agonist (100 μM BzATP final concentration for hP2X7; 5 μM BzATP final concentration or rP2X7) was added online with the FLIPR and fluorescence measurements made at 1 sec intervals for 60 sec followed by 3 sec intervals for a further 4 min (5 min total). A final addition of 5 μM ionomycin was made and the maximal BzATP-evoked fluorescence normalized to the maximal ionomycin-evoked fluorescence.

Turning to `COc1cc(Br)c(CC(=O)N2C=CC(=O)C[C@H]2c2ccc(F)cc2)cc1OCC1CC1` [Compound 18, (S)-1-[2-(2-Bromo-5-cyclopropylmethoxy-4-methoxy-phenyl)-acetyl]-2-(4-fluoro-phenyl)-2,3-dihydro-1H-pyridin-4-one], the “pIC50 P2X7” value worked out at 6.93.

Take `COc1ccc(CC(=O)N2C=CC(=O)CC2c2ccc(F)cc2)c(OC)c1` (stereo not drawn) [Compound 40, 1-[2-(2,4-Dimethoxy-phenyl)-acetyl]-2-(4-fluoro-phenyl)-2,3-dihydro-1H-pyridin-4-one]: the “pIC50 P2X7” value is recorded as 5.843.

With `COc1cc(Br)c(CC(=O)N2C=CC(=O)CC2c2cccc(C#N)c2)cc1OC` (stereo not drawn) [Compound 39, 3-{1-[2-(2-Bromo-4,5-dimethoxy-phenyl)-acetyl]-4-oxo-1,2,3,4-tetrahydro-pyridin-2-yl}-benzonitrile], the “pIC50 P2X7” value came to 5.45.

With `COc1cc(Cl)c(CC(=O)N2C=CC(=O)CC2c2ccccc2)cc1OC` (stereo not drawn) [Compound 11, 1-[2-(2-Chloro-4,5-dimethoxy-phenyl)-acetyl]-2-phenyl-2,3-dihydro-1H-pyridin-4-one], the “pIC50 P2X7” value stood at 6.806.

As to `COc1cc(CC(=O)N2C=CC(=O)CC2c2ccc(F)cc2)c(Br)cc1Cl` (stereo not drawn) [Compound 32, 1-[2-(2-Bromo-4-chloro-5-methoxy-phenyl)-acetyl]-2-(4-fluoro-phenyl)-2,3-dihydro-1H-pyridin-4-one], the “pIC50 P2X7” value is given as 6.17.

On to `COc1cc(CC(=O)N2C=CC(=O)C[C@H]2c2ccc(F)cc2)c(Br)cc1Cl` [Compound 30, (S)-1-[2-(2-Bromo-4-chloro-5-methoxy-phenyl)-acetyl]-2-(4-fluoro-phenyl)-2,3-dihydro-1H-pyridin-4-one], for which the “pIC50 P2X7” value worked out at 6.4.

For the molecule `COc1cc(CC(=O)N2C=CC(=O)C[C@H]2c2ccc(F)cc2)c(Br)cc1F` [Compound 36, (S)-1-[2-(2-Bromo-4-fluoro-5-methoxy-phenyl)-acetyl]-2-(4-fluoro-phenyl)-2,3-dihydro-1H-pyridin-4-one], the “pIC50 P2X7” value was determined as 7.55.

Take `COc1ccc(OC)c(CC(=O)N2C=CC(=O)CC2c2ccc(F)cc2)c1` (stereo not drawn) [Compound 42, 1-[2-(2,5-Dimethoxy-phenyl)-acetyl]-2-(4-fluoro-phenyl)-2,3-dihydro-1H-pyridin-4-one]: the “pIC50 P2X7” value came out at 5.995.

`COc1cc(Br)c(CC(=O)N2C=CC(=O)C[C@H]2c2ccc(F)cc2)cc1OC(F)F` [Compound 24, (S)-1-[2-(2-Bromo-5-difluoromethoxy-4-methoxy-phenyl)-acetyl]-2-(4-fluoro-phenyl)-2,3-dihydro-1H-pyridin-4-one]: the “pIC50 P2X7” value is reported as 6.305.

Turning to `COc1cc(Br)c(CC(=O)N2C=CC(=O)C[C@H]2c2cccc(F)c2)cc1OC` [Compound 41, (S)-1-[2-(2-Bromo-4,5-dimethoxy-phenyl)-acetyl]-2-(3-fluoro-phenyl)-2,3-dihydro-1H-pyridin-4-one], the “pIC50 P2X7” value amounted to 7.94.

Consider `CCOc1cc(CC(=O)N2C=CC(=O)C[C@H]2c2ccc(F)cc2)c(Br)cc1OC` [Compound 16, (S)-1-[2-(2-Bromo-5-ethoxy-4-methoxy-phenyl)-acetyl]-2-(4-fluoro-phenyl)-2,3-dihydro-1H-pyridin-4-one], for which the “pIC50 P2X7” value is on record as 7.17.

Take `O=C1C=CN(C(=O)Cc2cc3c(cc2Br)OCCO3)C(c2ccccc2)C1` (stereo not drawn) [Compound 12, 1-[2-(7-Bromo-2,3-dihydro-benzo[1,4]dioxin-6-yl)-acetyl]-2-phenyl-2,3-dihydro-1H-pyridin-4-one]: the “pIC50 P2X7” value is 5.305.

For `COc1cc(Br)c(CC(=O)N2C=CC(=O)CC2c2cccc(C)c2)cc1OC` (stereo not drawn) [Compound 37, 1-[2-(2-Bromo-4,5-dimethoxy-phenyl)-acetyl]-2-m-tolyl-2,3-dihydro-1H-pyridin-4-one], the “pIC50 P2X7” value is reported as 6.425.

Regarding `COc1cc(Cl)c(CC(=O)N2C=CC(=O)C[C@H]2c2ccccc2)cc1OC` [Compound 14, (S)-1-[2-(2-Chloro-4,5-dimethoxy-phenyl)-acetyl]-2-phenyl-2,3-dihydro-1H-pyridin-4-one], the “pIC50 P2X7” value came out at 6.705.

Turning to `COc1cc(F)c(CC(=O)N2C=CC(=O)C[C@H]2c2ccc(F)cc2)cc1OC` [Compound 47, (S)-1-[2-(2-Fluoro-4,5-dimethoxy-phenyl)-acetyl]-2-(4-fluoro-phenyl)-2,3-dihydro-1H-pyridin-4-one], the “pIC50 P2X7” value is 6.4.

Regarding `COCCOc1cc(CC(=O)N2C=CC(=O)C[C@H]2c2ccc(F)cc2)c(Br)cc1F` [Compound 43, (S)-1-{2-[2-Bromo-4-fluoro-5-(2-methoxy-ethoxy)-phenyl]-acetyl}-2-(4-fluoro-phenyl)-2,3-dihydro-1H-pyridin-4-one], the “pIC50 P2X7” value is recorded as 7.89.

As for `O=C1C=CN(C(=O)Cc2cc(OCCO)c(F)cc2Br)[C@H](c2cccc(F)c2)C1` [Compound 50, (S)-1-{2-[2-Bromo-4-fluoro-5-(2-hydroxy-ethoxy)-phenyl]-acetyl}-2-(3-fluoro-phenyl)-2,3-dihydro-1H-pyridin-4-one], the “pIC50 P2X7” value is on record as 7.65.

With `COc1cc(CC(=O)N2C=CC(=O)CC2c2ccc(F)cc2)c(Br)cc1C` (stereo not drawn) [Compound 31, 1-[2-(2-Bromo-5-methoxy-4-methyl-phenyl)-acetyl]-2-(4-fluoro-phenyl)-2,3-dihydro-1H-pyridin-4-one], the “pIC50 P2X7” value is listed as 6.59.

On to `COc1cc(Br)c(CC(=O)N2C=CC(=O)CC2c2ccc(F)cc2)cc1OC` (stereo not drawn) [Compound 22, 1-[2-(2-Bromo-4,5-dimethoxy-phenyl)-acetyl]-2-(4-fluoro-phenyl)-2,3-dihydro-1H-pyridin-4-one], for which the “pIC50 P2X7” value is 7.165.

Regarding `COc1cc(I)c(CC(=O)N2C=CC(=O)CC2c2ccc(F)cc2)cc1OC` (stereo not drawn) [Compound 6, 2-(4-Fluoro-phenyl)-1-[2-(2-iodo-4,5-dimethoxy-phenyl)-acetyl]-2,3-dihydro-1H-pyridin-4-one], the “pIC50 P2X7” value came to 6.97.

As to `COc1ccc(CC(=O)N2C=CC(=O)C[C@H]2c2cccc(F)c2)cc1OC` [Compound 45, (S)-1-[2-(3,4-Dimethoxy-phenyl)-acetyl]-2-(3-fluoro-phenyl)-2,3-dihydro-1H-pyridin-4-one], the “pIC50 P2X7” value came to 6.006.

The values are drawn from patent US8153808B2, “Dihydropyridone amides as P2X7 modulators” (Roche Palo Alto LLC, priority 2008, dated 2012).
